US9526785B2, “Pharmaceuticals for oral delivery” (Enteris BioPharma, Inc., priority 2013, dated 2016)
Read-outs that look alike come from different tables or passages of the source.

Experiment: Tigecycline plasma PK and % F after intraduodenal (ID) injection in anesthetized rats
Format: in vivo, Sprague-Dawley Rats
Details: for AUC(0-t) / Tmax / bioavailability / Cmax: female, Sprague-Dawley, rat, plasma; for bioavailability: read-out: % F, mean
Experimental: Animals weighed approximately 250 g at the time of testing. Rats were fasted overnight (with water available), prior to dosing.
Intravenous (IV) doses were administered as a bolus injection into the left carotid […] at a dose volume of 1.6 mL/kg. Intraduodenal doses were administered as bolus injections into the duodenum at a dose volume of 1.2 mL/kg.
An additional study was conducted exploring the effect of formulation pH at constant CA and LLC concentrations (RA867).
Female rats were maintained in groups of 3 per polycarbonate (or equivalent) shoebox cage with fresh wood chip bedding at 20-22° C. under a 12 hour on/off light:dark cycle. […] After the rats went limp they were injected intraperitoneally (IP) with 0.1 mL ketamine/xylazine. The anesthetic state was maintained by IP injection of ketamine/xylazine on an as needed basis. Animal weights were determined post-anesthesia induction.
An indwelling catheter for blood sampling was inserted into the right carotid artery by exposing the trachea with Mayo scissors, clamping the bottom of the […] and tying off the top with surgical suture. The area between was nicked with small sharp scissors and Intramedic polyethylene tubing was inserted into the nicked area. The artery with the tubing was sealed with suture to prevent leakage. A 23-gauge Intramedic Luer Stub Adapter was inserted into the cannula and attached to a 3 way valve which was connected to a 3 cc syringe filled with 0.9% normal saline and a 1 cc syringe filled with 5 U/mL sodium heparin for blood sampling.
An intraduodenal injection was utilized to mimic oral delivery of an enterically coated capsule or tablet formulation. […] Mayo scissors were used to expose the duodenum and the site of administration was identified by measuring 5 cm from the junction of the stomach and the duodenum towards the jejunum. The measured site was identified by inserting a small piece of surgical suture underneath the site for injection. After the formulation was injected, the abdominal cavity was closed with surgical clips.
Blood samples were collected in tubes containing 20 μL 180 mM EDTA. The tubes were maintained on ice and then centrifuged at approximately 3000 rpm at 4° C. for 5 minutes. Plasma was harvested immediately after centrifugation of the samples and stored at −20° C. pending analysis.
Minocycline (VWR international) was used as an internal standard. Sample processing/clean-up of plasma samples was carried out offline by protein precipitation with acidified acetonitrile.
The HPLC system consisted of Shimadzu SIL-HTc HPLC system equipped with dual Shimadzu LC-10ADvp isopumps, a Shimadzu CTO-10ASvp column temperature controller and a Shimadzu SPD-10Avp variable wavelength detector. […] Mobile phase A consisted of 23 mM phosphate buffer pH 2.5 with 6 mM 1-octanesulfonic acid, while mobile phase B consisting of pure acetonitrile. […] The mobile phase flow rate was 1.2 mL/min. Detection was performed using the SPD-10Avp variable wavelength detector set at 350 nm, with a sensitivity of 0.001 aufs.
The samples were then centrifuged under refrigeration at 13 k rpm for 30 minutes. The supernatant was taken and the liquid was removed to dryness in a turbovap. The samples were then reconstituted in 55 μL 0.1M phosphate buffer, pH 3.8. Samples were maintained at 10° C. while on the autoinjector during sequence. The injection volume was 50 μL. The unknown concentration in rat plasma samples was determined by interpolation of the peak area ratios of analyte:internal standard versus the ratio of their nominal concentrations into the regression line obtained from calibration standards spiked in pooled rat plasma. No regression weighting was used for the calculations. […] The calibration curve covered the range of 0.05 μg/mL to 5.0 μg/mL.

[1] = ID, 400 mM CA (pH 3.5), 26 mM LLC, 4.8 mg/kg (RA851), parent Tigecycline peak only, 4.8 mg/kg
[2] = ID, 400 mM CA (pH 3.5), 26 mM LLC, 9.0 mg/kg (RA853), parent Tigecycline peak only, 9 mg/kg
[3] = 4.6 mg/kg, RA861, ID, 26 mM LLC alone, mean dose 4.6 mg/kg
[4] = 4.6 mg/kg, RA861, ID, 400 mM CA/26 mM LLC, mean dose 4.6 mg/kg
[5] = 4.8 mg/kg, ID, PBS, 4.8 mg/kg (RA851)
[6] = 4.8 mg/kg, RA861, ID, 400 mM CA alone, mean dose 4.8 mg/kg
[7] = 4.8 mg/kg, pH 3.5, ID, 100 mM CA (pH 3.5), 26 mM LLC, 4.8 mg/kg (RA851)
[8] = 4.8 mg/kg, pH 3.5, ID, 400 mM CA (pH 3.5), 26 mM LLC, 4.8 mg/kg (RA851), parent Tigecycline peak only
[9] = 4.8 mg/kg, pH 3.5, RA867, ID, 400 mM CA/26 mM LLC pH 3.5, 4.8 mg/kg
[10] = 4.8 mg/kg, pH 6, RA867, ID, 400 mM CA/26 mM LLC pH 6.0, 4.8 mg/kg
[11] = 9 mg/kg, ID, PBS, 9.0 mg/kg (RA853), without animal RA853-6
[12] = 9 mg/kg, pH 3.5, ID, 100 mM CA (pH 3.5), 26 mM LLC, 9.0 mg/kg (RA853)
[13] = 9 mg/kg, pH 3.5, ID, 400 mM CA (pH 3.5), 26 mM LLC, 9.0 mg/kg (RA853), parent Tigecycline peak only

CN(C)c1cc(NC(=O)CNC(C)(C)C)c(O)c2c1C[C@H]1C[C@H]3[C@H](N(C)C)C(O)=C(C(N)=O)C(=O)[C@@]3(O)C(O)=C1C2=O [Tigecycline]
increase of tigecycline plasma concentrations (ID, 26 mM LLC and 100 mM citrate pH 3.5, versus PBS): 7-9 x
Cmax, Mean (ID, 100 mM CA (pH 3.5), 26 mM LLC, 4.8 mg/kg (RA851), 4.8 mg/kg): 714 ng/mL
% F, Mean (ID, 100 mM CA (pH 3.5), 26 mM LLC, 4.8 mg/kg (RA851), relative to 0.64 mg/kg IV): 10.85%
Tmax, Mean (ID, 100 mM CA (pH 3.5), 26 mM LLC, 9.0 mg/kg (RA853), 9 mg/kg): 16.667 min
% F, Mean (ID, 100 mM CA (pH 3.5), 26 mM LLC, 9.0 mg/kg (RA853), relative to 12 mg/kg IV): 11.36%
increase of mean % F (ID, 100 mM CA pH 3.5, 26 mM LLC, versus PBS): 4-7 fold
Cmax, Mean [1]: 792 ng/mL
Tmax, Mean [1]: 16.7 min
AUC(0-t), Mean [2]: 137.6 µg·min/mL
Cmax, Mean [2]: 2492 ng/mL
AUC(0-t), Mean (ID, PBS, 9.0 mg/kg (RA853), without animal RA853-6, 9 mg/kg): 15.7 µg·min/mL
% F, Mean (ID, PBS, 9.0 mg/kg (RA853), without animal RA853-6, relative to 12 mg/kg IV): 2.76%
AUC(0-t) [3]: 68 ng·h/mL
Tmax [3]: 18 min
bioavailability [3]: 1%
Cmax (4.6 mg/kg, RA861, ID, 26 mM LLC alone, mean dose 4.6 mg/kg, read-out: Cmax, mean): 64.1 ng/mL
AUC(0-t) [4]: 139 ng·h/mL
Tmax [4]: 10 min
bioavailability [4]: 2.1%
Cmax (4.6 mg/kg, RA861, ID, 400 mM CA/26 mM LLC, mean dose 4.6 mg/kg, read-out: Cmax, mean): 30.6 ng/mL
AUC(0-t) [5]: 116 ng·h/mL
Tmax [5]: 90 min
Cmax (4.8 mg/kg, ID, PBS, 4.8 mg/kg (RA851), read-out: Cmax, Mean): 100 ng/mL
AUC(0-t) [6]: 17.5 ng·h/mL
Tmax [6]: 20 min
bioavailability [6]: 0.3%
Cmax (4.8 mg/kg, RA861, ID, 400 mM CA alone, mean dose 4.8 mg/kg, read-out: Cmax, mean): 11.7 ng/mL
AUC(0-t) [7]: 823 ng·h/mL
Tmax [7]: 20 min
Cmax (4.8 mg/kg, pH 3.5, ID, 100 mM CA (pH 3.5), 26 mM LLC, 4.8 mg/kg (RA851), read-out: Cmax, Mean): 710 ng/mL
AUC(0-t) [8]: 1430 ng·h/mL
Tmax [8]: 17 min
Cmax (4.8 mg/kg, pH 3.5, ID, 400 mM CA (pH 3.5), 26 mM LLC, 4.8 mg/kg (RA851), parent Tigecycline peak only, read-out: Cmax, Mean): 790 ng/mL
AUC(0-t) [9]: 537 ng·h/mL
Tmax [9]: 12 min
bioavailability [9]: 7.7%
Cmax (4.8 mg/kg, pH 3.5, RA867, ID, 400 mM CA/26 mM LLC pH 3.5, 4.8 mg/kg, read-out: Cmax, mean): 488 ng/mL
AUC(0-t) [10]: 385 ng·h/mL
Tmax [10]: 43 min
bioavailability [10]: 5.5%
Cmax (4.8 mg/kg, pH 6, RA867, ID, 400 mM CA/26 mM LLC pH 6.0, 4.8 mg/kg, read-out: Cmax, mean): 278 ng/mL
AUC(0-t) [11]: 262 ng·h/mL
Tmax [11]: 30 min
Cmax (9 mg/kg, ID, PBS, 9.0 mg/kg (RA853), without animal RA853-6, read-out: Cmax, Mean): 220 ng/mL
AUC(0-t) [12]: 1280 ng·h/mL
Tmax [12]: 17 min
Cmax (9 mg/kg, pH 3.5, ID, 100 mM CA (pH 3.5), 26 mM LLC, 9.0 mg/kg (RA853), read-out: Cmax, Mean): 2060 ng/mL
AUC(0-t) [13]: 2300 ng·h/mL
Tmax [13]: 10 min
Cmax (9 mg/kg, pH 3.5, ID, 400 mM CA (pH 3.5), 26 mM LLC, 9.0 mg/kg (RA853), parent Tigecycline peak only, read-out: Cmax, Mean): 2490 ng/mL
AUC(0-t) ([…], RA869, ID, 26 mM LLC only): 91.7 ng·h/mL
Tmax ([…], RA869, ID, 26 mM LLC only): 10 min
bioavailability ([…], RA869, ID, 26 mM LLC only, […]): 8.9%
